Test results reported in a melting point compilation (Tetko et al.; mined from patent text by program, amines drawn as free bases though some values may be those of a salt).

First: O=c1n(-c2ccccc2)c(=O)n(SC(Cl)(Cl)Cl)n1SC(Cl)(Cl)Cl
Second: CN1CC2(CCN(Cc3ccccc3)CC2)OC1=O
The melting point of the first is higher: 175 °C for the first, 137 to 138 °C for the second.

First: NS(=O)(=O)c1ccc(-c2nc(-c3cnn4c(C(F)(F)F)cc(-c5ccc(C(F)(F)F)cc5)nc34)no2)cc1
Second: Cc1c(-c2cccc(C(F)(F)F)c2)oc2c(-c3ccc(F)cc3)c(-c3ccc(S(C)(=O)=O)cc3)nn12
The melting point of the first is higher: 292 °C for the first, 194 to 195 °C for the second.

First: CCc1ccc2oc(-c3ccc(C=C4C(=O)C5(C)CCC4C5(C)C)cc3)nc2c1 (centres undefined)
Second: Cc1ccc(-c2cc3ccc4ccccc4c3o2)cc1
The melting point of the first is higher: 178 to 179 °C for the first, 97 to 100 °C for the second.

First: C=CCOc1cccc([N+](=O)[O-])c1OC
Second: COc1ccc(C=C(C)[N+](=O)[O-])c(OC)c1OC
The melting point of the first is higher: 93 to 94 °C for the first, 57 to 58 °C for the second.

Compared with CC(C)N(CCCC(=NNC(N)=S)c1ccccc1)C(=O)C1CCCCC1, O=C(SCCC(=O)N1CCC[C@H]1C(=O)O)c1ccccc1 is lower in melting point: 112 to 114 °C for the first, 101 to 102 °C for the second.

Compared with O=C(Nc1ccc(Oc2ccnc(-n3ccnc3)n2)c2ccccc12)c1cc(F)cc(N2CCCCC2)c1, N#Cc1cccc(-n2c(=O)c(N3CCCCCC3)cc3cccnc32)c1 is higher in melting point: 175 to 176 °C for the first, 215 to 217 °C for the second.

First: COc1c(-c2cc3c(s2)CCC/C3=N\OCc2ccccn2)ccc2c(=O)c(C(=O)O)cn(C3CC3)c12
Second: O=C1CCCc2[nH]c3ccc(OCc4ccccc4)cc3c21
The melting point of the first is lower: 178 to 179 °C for the first, 235 to 237 °C for the second.

First: Brc1ccc(SCc2ncon2)cc1
Second: CC(N1C(=O)C(=O)N(c2ccc(Br)cc2)C1=S)C(C)(C)C (centres undefined)
The melting point of the first is lower: 56 °C for the first, 207 to 208 °C for the second.

First: CN1CCNC(=S)N1c1cc(Cl)cc(Cl)c1
Second: CN1CCNC(=O)C1c1ccc(N)cc1 (centres undefined)
The melting point of the first is higher: 240 to 241 °C for the first, 153 to 154 °C for the second.

First: Clc1cc(NCCc2ccccc2)c2ccccc2n1
Second: O=C(Cc1ccccc1)Nc1cnc2ccccc2c1O
The melting point of the first is lower: 132 to 133 °C for the first, 253 to 255 °C for the second.

First: CCCCC(=O)Nc1ccc(C(=O)OC)cc1[N+](=O)[O-]
Second: CCCc1cn2cc(C(=O)OC)nc2s1
The melting point of the first is lower: 106 to 107 °C for the first, 155 to 156 °C for the second.

First: COCCNS(=O)(=O)CC1CC(C)(C)Oc2ccc(OCCO)cc21 (centres undefined)
Second: COCCc1nc2c(N)nc3ccccc3c2n1CCOCCN(C)S(C)(=O)=O
The melting point of the first is lower: 61 to 63 °C for the first, 145 to 146 °C for the second.

First: Cc1cc([N+](=O)[O-])c(Cl)c([N+](=O)[O-])c1S(N)(=O)=O
Second: O=C(O)Cc1c(Cl)nc(-c2cc([N+](=O)[O-])c(Cl)c([N+](=O)[O-])c2)n1Cc1ccccc1
The melting point of the first is higher: 205 to 215 °C for the first, 100 to 105 °C for the second.

Compared with CC(CC#N)N1C(=O)C2(OCCCO2)c2cc(Br)ccc21 (centres undefined), CC1(C)OC[C@@H](CNc2c([N+](=O)[O-])cnc3cc(Br)ccc23)O1 is higher in melting point: 112 to 113 °C for the first, 136 to 137 °C for the second.

Compared with COC(=O)c1ncccc1C(=O)c1ccc(-n2ccnc2)cc1, c1cn(Cc2ccc3[nH]c(-n4ccnc4)nc3c2)cn1 is higher in melting point: 150 to 157 °C for the first, 226 °C for the second.

Compared with ON=C1c2ccccc2CCC1Br (centres undefined), O=C1CCCCC1c1ccccc1F (centres undefined) is lower in melting point: 125 to 131 °C for the first, 47 to 49 °C for the second.

Compared with O=c1[nH]c2ccncc2c(=O)o1, CCOc1ccc2nc3[nH]c(=O)[nH]c3cc2c1 is higher in melting point: 180 °C for the first, greater than 320 °C for the second.

Compared with COC(=O)CCNc1c(C#N)cnn1-c1c(Cl)cc(C(F)(F)F)cc1Cl, CCN(CC)CCNC(=O)c1cc(C#N)c(Cl)cc1OC is lower in melting point: 171 to 173 °C for the first, 104 to 105 °C for the second.

O=c1[nH]c2cccc(OCCNCc3ccc(Cl)cc3)c2[nH]c1=O and O=C(Nc1ccc(Cl)cc1)Nn1cnc2c(O)cccc2c1=O cannot be ordered by melting point: greater than 250 °C for the first, 266 to 268 °C for the second.

First: Cc1ccc(-c2ccccc2C(=O)Nc2ccc(C(=O)N3C[C@H]4CCCN4c4ccccc43)cc2)cc1
Second: COC(=O)c1ccccc1N(c1ccccc1)C1(c2ccc(N(C)C)cc2)OC(=O)c2ccccc21 (centres undefined)
The melting point of the first is higher: 228 to 230 °C for the first, 92.5 to 102 °C for the second.

Compared with Cc1ccc(C(=O)OC(C)(C)C)cc1C=O, CC(=O)N(c1ccc(C)c(C)c1)[C@H](C)C(=O)O is higher in melting point: 53 to 55 °C for the first, 156 to 159 °C for the second.

First: NCCSc1c(S(=O)(=O)c2ccccc2)c2ccccc2n1Cc1ccccc1
Second: O=C(Nc1nc(C(C(=O)O)=C(Cl)C(=O)OCc2ccccc2)cs1)OCc1ccccc1
The melting point of the first is lower: 149 to 150 °C for the first, 173 to 174 °C for the second.

Going from CC(=O)OC(=CC(=O)O)CC(=O)Nc1cccc(F)c1 to CC(=O)Oc1ccc2cc(NCCCCNC(=O)OC(C)(C)C)c(=O)oc2c1, the melting point rises from 117 °C to 120 °C.

Compared with O=C(NN=Cc1ccncc1)OC(c1ccccc1)c1ccccc1, O=C(Cl)c1c2ccccc2nc2ccccc12 is lower in melting point: 159 to 160 °C for the first, 135 °C for the second.

First: COCc1cccc2oc(C(=O)Nc3ccc(-c4ccc(S(=O)(=O)NC(C(=O)O)C(C)C)cc4)cc3)c(C)c12 (centres undefined)
Second: COC(=O)CCC(=O)c1ccc(-c2ccc(C(C)(C)C)cc2)cc1
The melting point of the first is higher: 227 to 230 °C for the first, 58 to 62 °C for the second.

Compared with CCOP(=O)(OCC)C(Nc1ncc(-c2ccccc2)s1)P(=O)(OCC)OCC, COc1ccccc1OCC1(COc2ccccc2OC)NC(C(=O)O)CS1 (centres undefined) is higher in melting point: 151 to 153 °C for the first, 160 to 162 °C for the second.

Compared with COc1cc(COc2cc(N)c(Cl)cc2C(=O)CCCCN2CCC(C)(C)CC2)cc(OC)c1, CCOC(=O)CCC(=O)c1ccc(CCCCN2CCN(c3cccc(C)c3)CC2)cc1 is lower in melting point: 135 to 136 °C for the first, 62 to 63 °C for the second.

Compared with CC1CCc2ncc([N+](=O)[O-])cc2C1 (centres undefined), O=C1CCSc2sccc21 is higher in melting point: 50 to 52 °C for the first, 61 to 62 °C for the second.

Compared with C#CCn1c(C(F)(F)F)c(C(=O)OCC)oc1=O, O=c1ncc(C(F)(F)F)c[nH]1 is higher in melting point: 72 °C for the first, 154 °C for the second.

First: CS(=O)(=O)N(CCc1ccc(Cl)cc1)Cc1ccncc1
Second: C[C@H](O)[C@H](CO)N(Cc1ccc(C#N)cc1)S(=O)(=O)c1ccc(Cl)cc1
The melting point of the first is lower: 96 to 99 °C for the first, 124 to 126 °C for the second.

First: COc1cccc(OC)c1C(=O)Nc1nc[nH]n1
Second: COC(=O)c1c(C(=O)OC)c2n(c1C)-c1ccccc1C2
The melting point of the first is higher: 191 to 193 °C for the first, 162 to 164 °C for the second.

First: COC(=O)c1cccn1CC(I)=C(I)I
Second: O=C(ON=C(Br)Br)c1ccc(Cl)cc1
The melting point of the first is lower: 88 to 90 °C for the first, 93 to 97 °C for the second.

First: Cc1cc(Nc2cncc(Nc3ccc(Cl)c(C(=O)N(C)C)c3)n2)n[nH]1
Second: Cc1cc(-c2nc3cccnn3c2-c2ccnc(NC(=O)NCC(F)(F)F)c2)ccc1F
The melting point of the first is lower: 213 to 215 °C for the first, 229 to 230 °C for the second.

First: CCOC(=O)c1cnc2ccc3nc(Cl)sc3c2c1Cl
Second: COC(=O)c1ccc(Cl)c(Cn2nnn(C3CC3)c2=O)c1Cl
The melting point of the first is higher: 143 to 146 °C for the first, 99 to 100 °C for the second.

First: O=C(NCC12CC3CC(CC(C3)C1)C2)c1cc(-c2cccnc2N2CCC(C(=O)O)CC2)ccc1Cl
Second: CN(CCCN1CCN(c2ccccc2C2CC2)CC1)c1nccc(C(N)=O)n1
The melting point of the first is lower: 110 to 115 °C for the first, 170 °C for the second.

Compared with CCCC(CCC)N1CCc2c(C(=O)O)cc(F)cc2C1=O, CCCNC(=O)c1cnc2ccc(C)cn2c1=O is lower in melting point: 143 °C for the first, 126 to 128 °C for the second.

First: CCC1=C(C#N)C(c2ccccc2OC)c2c[nH]nc2N1 (centres undefined)
Second: CC[C@H]1[C@@H](O)[C@H](C)C(=O)N1c1ccc(C#N)c(OC)c1
The melting point of the first is higher: 230 to 232 °C for the first, 78 to 81 °C for the second.

First: CON(C(=O)Nc1nc(OCC(F)(F)F)cc(OCC(F)(F)F)n1)c1ccc(Cl)cc1
Second: Cc1c(Cl)cc(C(C)(C)C)c(O)c1-c1nc2cc(OC(F)(F)F)ccc2[nH]1
The melting point of the first is higher: 275 to 276 °C for the first, 243 to 244 °C for the second.

First: CN1C(C(=O)Nc2cccccc2=O)=C(O)c2ccccc2S1(=O)=O
Second: OCCN1CCN(C2=Nc3ccccc3Sc3ccccc32)CC1
The melting point of the first is higher: 259 to 261 °C for the first, 57 to 60 °C for the second.

First: O=C(Cc1cc(F)cc(F)c1)N[C@@H](Cc1cc2ccccc2[nH]1)C(=O)N[C@@H]1C(=O)Nc2ccccc2S[C@@H]1c1ccccc1
Second: COc1ccc(S(=O)(=O)C(CC(=O)NO)Cc2ccccc2)cc1 (centres undefined)
The melting point of the first is lower: 85 to 90 °C for the first, 118 to 120 °C for the second.

First: Cc1cc(C)c(-c2cc(O)c(SCc3ccccc3)c(=O)o2)c(C)c1
Second: CC(=O)NC(C(=O)NCc1ccccc1)c1cn(S(=O)(=O)N(C)C)cn1 (centres undefined)
The melting point of the first is lower: 134 to 136 °C for the first, 145 to 147 °C for the second.

First: O=c1[nH]c(=O)n(C2CC(O)C(CF)O2)cc1C=CBr (centres undefined)
Second: O=C(c1cccnc1)N1CCC(c2ccccc2C(F)(F)F)=N1
The melting point of the first is higher: 208 °C for the first, 95 to 97 °C for the second.

CCCCCCOc1ccc(CCCCCCCCC(=O)N(C)O)cc1 and O=[N+]([O-])c1ccc(CCCCCCCCCCCCCCOCCCCCCCCCCCCCCc2ccc([N+](=O)[O-])cc2)cc1 cannot be ordered by melting point: 59 to 61 °C for the first, 57 to 60 °C for the second.

First: CCc1c(O)ccc2c1CCCC2
Second: O=C1CCCc2cc(O)c(Cl)c(Cl)c21
The melting point of the first is lower: 94 to 95 °C for the first, 244 to 246 °C for the second.

Compared with CCOCc1nc2c(N)nc3cc(-n4cccn4)ccc3c2n1CCCOC, Cc1nc(N)c2nc(CO)n(CC(C)C)c2c1C is higher in melting point: 159 to 160 °C for the first, 231 to 234 °C for the second.

First: O=C(O)CCCCCSc1ccc(-c2ccc(Cl)cc2)cc1
Second: CCOC(=O)C(C(=O)CCCC(C)C)C1c2ccccc2C(=O)N1c1ccc2ccc(Cl)nc2n1 (centres undefined)
The melting point of the first is higher: 156 to 157 °C for the first, 135 °C for the second.

First: CC(C)(C)[S@](=O)N1CCCC[C@@H]1c1ccccc1
Second: C[C@@H](Nc1nnc(-c2ccccc2)c2occc12)C1CCCCC1
The melting point of the first is lower: 45 to 50 °C for the first, 126 to 130 °C for the second.

First: CC(C)(C)CCN[C@@H](CC(=O)O)C(=O)O
Second: CCC(CC)OC(=O)c1ccc(C(=O)NS(=O)(=O)c2ccc(CCNC(=O)c3cc(OC)ccc3Cl)cc2)cn1
The melting point of the first is higher: 184 to 186 °C for the first, 174 to 176 °C for the second.

Compared with COC1CC2(C)C(CCC3C4CC=C(C(C)=O)C4(C)CCC32)CC1O (centres undefined), C1=C(c2ccc3c(c2)OCO3)CCC2(C1)OCCO2 is lower in melting point: 183 to 187 °C for the first, 75 to 76 °C for the second.

Compared with C#Cc1ccc(OC2CCCCO2)cc1 (centres undefined), O=C(NC/C=C/c1ccccc1)c1ccc(OC(F)(F)F)cc1 is higher in melting point: 65 °C for the first, 136 °C for the second.

Compared with OCCNCCNc1nnc(NCCNCCO)c2cc3ccccc3cc12, CCOC(=O)c1c(CN(CC)CC)nc2sc3cnccc3c2c1-c1ccc(O)c(OC)c1 is higher in melting point: 129 to 131 °C for the first, 179 to 181 °C for the second.

First: CC(=O)NNC(=S)Nc1cc(C)ccc1Cl
Second: CNc1nc(C)c(-c2sc(NC)nc2C)s1
The melting point of the first is lower: 145 to 157 °C for the first, greater than 280 °C for the second.
